Laboratory results as given in ChEMBL document CHEMBL2429769, “Synthesis and bioconversions of formestane” (J Nat Prod, 2013).

Key:
MCF7 = experiment: Cytotoxicity against human MCF7 cells after 72 hrs by SRB assay; type: functional, cell-based; details: MCF7, 72 h
Aromatase = target: T1, Aromatase (Homo sapiens, UniProt P11511)
T1 sequence (P11511 whole entry): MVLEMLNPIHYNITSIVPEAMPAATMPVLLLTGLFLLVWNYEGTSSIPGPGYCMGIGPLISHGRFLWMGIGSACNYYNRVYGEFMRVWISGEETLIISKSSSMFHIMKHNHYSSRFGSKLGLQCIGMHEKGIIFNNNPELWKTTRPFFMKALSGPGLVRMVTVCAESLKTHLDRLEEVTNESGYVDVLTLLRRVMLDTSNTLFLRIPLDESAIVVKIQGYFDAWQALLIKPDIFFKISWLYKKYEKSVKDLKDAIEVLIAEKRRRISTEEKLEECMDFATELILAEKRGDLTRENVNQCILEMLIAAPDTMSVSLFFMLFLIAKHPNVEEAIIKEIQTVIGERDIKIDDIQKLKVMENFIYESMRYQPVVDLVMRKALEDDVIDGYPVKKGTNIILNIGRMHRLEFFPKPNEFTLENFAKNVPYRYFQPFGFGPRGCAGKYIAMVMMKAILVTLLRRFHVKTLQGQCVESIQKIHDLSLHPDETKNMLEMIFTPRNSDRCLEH
Description: Inhibition of aromatase (unknown origin) using dibenzylfluorescein as substrate after 30 mins by fluorescence assay

Row | SMILES | IC50 (MCF7) [µM] | IC50 (Aromatase) [µM]
1 | C[C@]12CC[C@H]3[C@@H](CC[C@@]4(O)[C@@H](O)C(=O)CC[C@]34C)[C@@H]1CCC2=O | 15 | 29.1
2 | C[C@]12CC[C@H]3[C@@H](CCC4=C(O)C(=O)CC[C@@]43C)[C@@H]1CC[C@@H]2O | 16.5 | 47
3 | C[C@]12C[C@@H](O)[C@H]3[C@@H](CCC4=C(O)C(=O)CC[C@@]43C)[C@@H]1CC[C@@H]2O | 12.5 | 10.9
4 | C[C@]12CC[C@@H](O)C(=O)[C@H]1CC[C@@H]1[C@@H]2CC[C@]2(C)[C@@H](O)CC[C@@H]12 [3ALPHA,17BETA-DIHYDROXY-5BETA-ANDROSTAN-4-ONE] | 16.4 | 3.9
5 | C[C@]12CCC(=O)C(O)=C1CC[C@@H]1[C@@H]2CC[C@]2(C)C(=O)CC[C@@H]12 [FORMESTANE] | 20 | 58.6
6 | CC[C@]1(O)C[C@@H]2CN(CCc3c([nH]c4ccccc34)[C@@](C(=O)OC)(c3cc4c(cc3OC)N(C)[C@H]3[C@@](O)(C(=O)OC)[C@H](OC(C)=O)[C@]5(CC)C=CCN6CC[C@]43[C@@H]65)C2)C1 [VINBLASTINE] | 0.0109 | 
